Laboratory results as given in patent US12138240B2, “Treatment of cardiac dysfunction” (priority 2017, dated 2024).
Where two headings read alike, the source gives them in different places.

What was measured:
[1] = system: human subjects with sustained atrial flutter; experiment: treatment of atrial flutter with A2-73 (Example 2); assay type: in vivo; conditions: Example 2: 60 mg orally daily
Experimental: The safety, tolerability, and short term efficacy of […] 2-73 in human subjects with sustained atrial flutter as follows. A subject with atrial flutter (72 hr duration) receives 60 mg of A2-73 orally daily. Dosing is initiated in hospital and continues in weekly follow-up visits. Efficacy is assessed as absence of atrial flutter recurrence on weekly 12-lead ECG and daily transtelephonic monitoring during the study.

male healthy subjects = experiment: linear exposure-QTcF model (NONMEM); parameters: species or system human; conditions: QTcFij=407+0.196*Parent−0.643*Metabolite−0.143*Time
Text: Data analysis proceeded from data structure analysis in S-PLUS to linear/nonlinear mixed effects modeling in NONMEM to develop the exposure-QTc relationship for ANAVEX 2-73 and its active metabolite ANAVEX 19-144. The correction method used for QT interval was the Fridericia's correction. The bootstrap was used to determine the reliability/stability of the exposure-QTc models developed. This was necessary to determine if the modeling results obtained with data from the 17 subjects would be applicable to the population at large, given the sample size. […]
The approach used in characterizing exposure-QTc relationship was as follows: • 1) Concentration and QTc versus time plots were examined for any apparent trends or associations. • 2) Subject- and dose-specific QTc vs concentration plots were also examined for association as well as for the presence of any hysteresis indicative of temporal dissociations, i.e., indirect effects. • 3) All of the QTc measurements were plotted against the paired concentration measurements. […] Additionally, models incorporating cooperativity of drug action such as competitive antagonism between ANAVEX 2-73 and ANAVEX 19-144 concentrations and QTc effect were evaluated, as warranted, using nonlinear mixed effects modeling. […]

[2] = system: human subjects with sustained atrial fibrillation (AF); experiment: treatment of atrial fibrillation with A2-73 (Examples 1 and 4); assay type: in vivo; conditions: for AF recurrence: 30 day follow-up; for serious adverse events: to end of 30 day follow-up
Experimental: The safety, tolerability, and short term efficacy of […] A subject with symptomatic AF (72 hr duration) receives 30 mg of A2-73 orally every day. Dosing is initiated in hospital and continues in weekly follow-up visits. Efficacy is assessed as absence of AF recurrence on weekly 12-lead ECG and daily transtelephonic monitoring during the study. The safety, tolerability, and short term efficacy of […] A subject with symptomatic AF (72 hr duration) is administered intravenously 30 mg of A2-73 every day. Dosing is initiated in hospital and continues in weekly follow-up visits. Efficacy is assessed as absence of AF recurrence on weekly 12-lead ECG and daily transtelephonic monitoring during the study.

[3] = system: human subjects with sustained ventricular fibrillation; experiment: treatment of ventricular fibrillation with A19-144 (Example 3); assay type: in vivo; conditions: Example 3: 40 mg orally daily in two 20 mg doses
Experimental: The safety, tolerability, and short term efficacy of […] A subject with symptomatic ventricular fibrillation (72 hr duration) receives 40 mg of A19-144 orally daily in two 20 mg doses. Dosing is initiated in hospital and continues in weekly follow-up visits. Efficacy is assessed as absence of ventricular fibrillation recurrence on weekly 12-lead ECG and daily transtelephonic monitoring during the study.

[4] = phase 2a studies, highest observed Cmax and extrapolation to 200 mg dose; conditions: human, in vivo, footnote b, Alzheimer's disease patients, paired with ANAVEX 2-73 value, read-out: ANAVEX 19-144 Concentration, highest observed Cmax in phase 2a studies
Experimental: Estimates are employed to apply the Exposure-QTcF relationship using observed and unlikely to be observed concentrations of the parent drug and metabolite QTc intervals are predicted, given the parameter estimates obtained with the exposure-QTcF model developed. […] The predicted QTcF for that subject is 410.67 ms, given the corresponding concentration of ANAVEX 19-144 being 38.3 ng/mL (Table 3). Thus, the QT corrected interval upon treatment with ANAVEX 2-73 is predicted to be below 420 ms.
Observed and unlikely to be observed concentrations of the parent drug and metabolite are used to predict heart rate, given the parameter estimates obtained with the exposure-heart rate model developed. […] Thus, the heart rate upon treatment with ANAVEX 2-73 is predicted to be below 75 beats/min.

sigma-1 receptors = sigma-1 receptors (Homo sapiens, UniProt Q99720); conditions: stated as 'is believed to bind'; cited from earlier work
Chain of sigma-1 receptors (Q99720 whole entry): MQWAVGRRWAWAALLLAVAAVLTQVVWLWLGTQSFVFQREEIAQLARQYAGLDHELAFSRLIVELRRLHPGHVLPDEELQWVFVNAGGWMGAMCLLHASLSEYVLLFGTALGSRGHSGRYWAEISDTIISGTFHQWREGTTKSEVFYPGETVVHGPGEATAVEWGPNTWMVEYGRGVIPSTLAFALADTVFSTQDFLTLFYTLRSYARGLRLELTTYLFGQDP

[5] = system: muscarinic acetylcholine receptors; conditions: stated as 'is believed to bind'; cited from earlier work
[6] = Example 1: 30 mg orally every day
[7] = Example 4: 30 mg intravenously every day

SMILES | time to cessation of arrhythmia [1] | recurrence ([1]; 30 day follow-up) | serious adverse events ([1]; to end of 30 day follow-up) | slope on Parent in final exposure-QTcF model (male healthy subjects) | time to cessation of AF [2, 6] | AF recurrence [2, 6] | serious adverse events [2, 6] | time to cessation of AF [2, 7] | AF recurrence [2, 7] | serious adverse events [2, 7] | time to cessation of ventricular fibrillation [3] | ventricular fibrillation recurrence ([3]; 30 day follow-up) | serious adverse events ([3]; to end of 30 day follow-up) | Cmax ([4]; 50 mg) | Cmax [4] | affinity for sigma-1 receptors (sigma-1 receptors) | affinity for muscarinic acetylcholine receptors [5]
CN(C)CC1CCOC1(c1ccccc1)c1ccccc1.Cl (centres unmarked) [ANAVEX 2-73, 1-(2,2-diphenyltetrahydrofuran-3-yl)-N,N-dimethylmethanamine hydrochloride] | ≤ 12 h | does not recur | no serious adverse events occur | 0.196 | ≤ 12 h | does not recur | no serious adverse events occur | ≤ 12 h | does not recur | no serious adverse events occur |  |  |  |  |  |  | 
CNCC1CCOC1(c1ccccc1)c1ccccc1.Cl (centres unmarked) [ANAVEX 19-144, 1-(2,2-diphenyltetrahydrofuran-3-yl)-N-methylmethanamine hydrochloride] |  |  |  |  |  |  |  |  |  |  | ≤ 12 h | does not recur | no serious adverse events occur | 11.1 ng/mL | 23.1 ng/mL | low micromolar range | low micromolar range
